{"source": "ChEMBL document CHEMBL1121572", "about": "“Synthetic and preliminary hemodynamic and whole animal toxicity studies on (R,S)-, (R)-, and (S)-2-methyl-3-(2,4,5-trihydroxyphenyl)alanine” (J Med Chem, 1980)"}
{"experiment": "Compound was tested for toxicity (lethal dose) in male white swiss mice", "type": "organism-based", "details": "mouse, in vivo", "units": {"LD50": "mg/kg"}}
{"smiles": "CC(N)(Cc1cc(O)c(O)cc1O)C(=O)O", "note": "(racemic)", "LD50": 289}
{"smiles": "CC(N)Cc1cc(O)c(O)cc1O", "note": "(racemic)", "LD50": 320}
{"smiles": "CC(N)Cc1ccc(O)c(O)c1", "note": "(racemic)", "LD50": 576}
{"smiles": "CC(N)(Cc1ccc(O)c(O)c1)C(=O)O", "note": "(racemic) [METHYLDOPA (RACEMIC)]", "LD50": 1320}
{"smiles": "C[C@](N)(Cc1ccc(O)c(O)c1)C(=O)O", "note": "[METHYLDOPA]", "LD50": 1890}
